In general, melting point refers to the temperature, or range, at which the solid turns liquid.

This note sets out measurements from a melting point compilation (Tetko et al.; mined from patent text by program, amines drawn as free bases though some values may be those of a salt).

As for `COc1cc(Nc2c(C#N)cnc3c2C=C2N=C(NCCN4CCOCC4)N=C2C3)cc(OC)c1OC`, the melting point is 175 to 178 °C.
As to `N#Cc1cc(N2CCN(CCCCCC(=O)N3Cc4ccccc4C3)CC2)cc(C(F)(F)F)c1`, the melting point was 128 °C.
On to `CN1C(=O)Cc2cc(Br)cnc21`, for which the melting point was 149 °C.
Consider `CC(Cc1ccc2c(c1)OCO2)C(=O)O` (stereo unspecified), for which the melting point was 121 °C.
Molecule `CCCN(CCN1CCN(c2ccc3[nH]ccc3c2)CC1)C1CCc2ccc(O)cc2C1` (stereo unspecified) had a melting point of 179 to 183 °C.
`N#CCOc1cccc(COc2ccc(OCc3ccc4ccccc4n3)cc2)c1` returned a melting point of 110 to 114 °C.
`CC(C(=O)N(C)C)n1ccc(-c2cccc([N+](=O)[O-])c2)n1` (stereo unspecified) came in with a melting point of 117 to 119 °C.
`Cn1nc([N+](=O)[O-])nc1Br`: the melting point was 90.5 to 91.5 °C.
In the case of `Cc1c(/C=C/c2ccccc2)nc2ccc(C(=O)O)cn2c1=O`, the melting point was in the range of 312 to 313 °C.
In turn, `CC(COc1c(-c2ccccc2)c(=O)oc2ccccc12)CN1CCOCC1` (stereo unspecified) displayed a melting point of 113 °C.
As for `O=C(NC(=O)c1c(F)cccc1F)Nc1ccc(Br)cn1`, the melting point lay within 232 to 235 °C.
For the molecule `CCOc1cc([N+](=O)[O-])ccc1NC(C)=O`, the melting point lay in the range of 164 to 165 °C.
In the case of `Cc1cc(C)n(Cc2ccccc2Cl)c(=O)c1C#N`, the melting point lay in the range of 243 to 245 °C.
To `COc1ccc(OC)c(C2=Nc3ccc(N4CCCC4)cc3C(=O)C2)c1` belongs 272 to 274 °C.
As for `NC1Cc2ccccc2CN(CC(=O)O)C1=O` (stereo unspecified), the melting point was 266 to 268 °C.
Consider `NC(=O)c1cccc(OCCCCC/C=C\c2ccsc2)c1`, for which the melting point lay in the range of 71 to 73 °C.
Regarding `CC(C)C(=O)NCCOc1ccc([N+](=O)[O-])cc1`, the melting point lay within 102 to 103 °C.
With `Cc1c(Cl)sc2[nH]c(=O)c(-c3ccccc3)c(O)c12` the figure was 105 to 107 °C; with `Cc1c(-c2ncc([N+](=O)[O-])n2C)cnn1-c1ccccc1`, 194 °C.
In the case of `C=Cc1cc(CC(=O)O)ccc1OCc1ccc2ccccc2n1`, the melting point is 173 °C.
As for `CCCCCCC(=N)NC(=S)Nc1ccccc1Cl`, the melting point was in the range of 75 to 77 °C.
With `Oc1cnccc1CCCOc1cccnc1Oc1cccc(F)c1` the figure was 68 to 70 °C; with `CCC(=O)N(C)c1ccc(C(=O)C=CN(C)C)cc1`, 76 to 78 °C; with `Cc1cc(C(=O)Oc2ccccc2)c(O)c2ccccc12`, 76 to 77 °C.
In turn, `COc1cc2c3c(nc4ccc(Cl)cc4c3c1)-c1ccc(Cl)cc1N2C` registered a melting point of 287 to 289 °C.
`CCOc1ccc2[nH]c(=O)n(N3CCOCC3)c2c1` yielded a melting point of 155 °C.
The molecule `O=C1Nc2ccc(C(F)(F)F)cc2C1c1ncnc2c1cnn2C1CCCC1` (stereo unspecified) had a melting point of over 300 °C.
Molecule `COc1cccc2c1CC(N(CCCc1cn(C)c3ccc(F)cc13)CC1CC1)CO2` (stereo unspecified) returned a melting point of 86 °C.
`COc1cc2c(c3c1OC(C)(C)C3)C(c1cccc(NC(=O)NCCCl)c1)=NC(C)(C)C2` registered a melting point of 147 to 150 °C.
Molecule `CSc1nc(N)c(O)c(=O)[nH]1` returned a melting point of 243 to 245 °C.
As for `CN1Cc2c(Cl)ncn2-c2ccccc2C1=O`, the melting point lay within 193 to 194 °C.
The molecule `COC(=O)C(=O)CC(=O)c1ccc(C2CCCCC2)cc1` gave a melting point of 96 to 98 °C.
As for `Fc1ccc(-c2cc(Cl)ncn2)c(F)c1`, the melting point was in the range of 65 to 69 °C.
Regarding `CC(C)C1(Cl)Cc2cc(OCC(=O)O)cc(Cl)c2C1=O` (stereo unspecified), the melting point was found to be 142 °C.
The molecule `CS(=O)(=O)c1ccc(-c2ccccc2N2CCCCC2)cc1` returned a melting point of 140 °C.
With `O=C(/C=C/c1ccc2cc[nH]c2c1)CC(=O)/C=C/c1cc(O)ccc1Br` the figure was 196 to 200 °C; with `COc1cc(C(=O)O)cc2c1oc1ccccc12`, 229 to 240 °C; with `CC1(C)C(=O)Oc2ccc(C#N)cc21`, 138 to 140 °C.
`NS(=O)(=O)c1ccc(-n2nc(C(=O)O)cc2-c2ccc(Cl)cc2)cc1` had a melting point of 126 to 128 °C.
Molecule `O=C1CC[C@@H]([N+](=O)[O-])[C@H](c2ccccc2)N1` (relative stereo) showed a melting point of 174 to 175 °C.
To `CCC(=O)c1cc2ccccc2cc1C(=O)O` belongs 147 °C; to `CN(c1cc(OCCCS(C)(=O)=O)cc2cc(C3=NCC(CN4CCS(=O)CC4)S3)[nH]c12)S(=O)(=O)c1ccccn1` (stereo unspecified), 107 to 110 °C.
`CC(=O)OC1CSC(Oc2ccc(-c3cnccc3F)nc2-c2cnccc2F)C(OC(C)=O)C1OC(C)=O` (stereo unspecified) had a melting point of 169 °C.
In turn, `CN(C)C(=O)Cn1c(-c2ccc(C(F)(F)F)cc2)nc2cccnc21` gave a melting point of 181 to 183 °C.
Take `Cn1c(=O)cc(-c2cccc(Cl)c2)c2cccnc21`: the melting point lay within 168 to 170 °C.
As to `Cc1ccc(Cl)cc1-c1cccc2c1OC(CN)C2` (stereo unspecified), the melting point fell in the range of 146 to 150 °C.
In turn, `CN(C)C(=O)n1nc(NC=O)c2cc(C(F)(F)F)ccc21` gave a melting point of 198 to 200 °C.
Regarding `COc1ccc2cc(CCC3(C)OCCO3)cc(F)c2c1`, the melting point fell in the range of 51 to 53 °C.
To `COC(=O)c1cccc(Cn2c(=O)c(=O)n(Cc3cccc(C(=O)O)c3)c3ccc([N+](=O)[O-])cc32)c1` belongs 238 to 240 °C; to `N#CC(=Cc1ccc(F)cc1[N+](=O)[O-])C(N)=O`, 278 to 279 °C; to `O=C(NCCc1ccccc1F)c1c(Cl)ccc2nc(N3CCC(C(=O)O)CC3)ccc12`, 270 to 272 °C.
For `CCS(=O)(=O)N(C(C)=O)c1cc(-n2nc(C(F)(F)F)n(C)c2=O)c(F)cc1C#N`, the melting point came out at 179 °C.
`CC(C)(C)OC(=O)CON=C(C(=O)O)c1ccsc1` gave a melting point of 103 to 104 °C.
To `CC(C)CCNC(=O)c1ccc2c(c1)N(C(C)CN(C)C)c1ccccc1S2` (racemic) belongs 105 °C; to `CCCc1csc(/C=C/c2cccc(NCCCC(=O)O)c2)n1`, 115 to 116 °C.
To `CN1CCCN=C1C(Cl)(Cl)[N+](=O)[O-]` belongs 92 to 93 °C; to `COc1ccc(C=O)c(OC)c1Cl`, 107 to 108 °C.
Take `COc1ccc2c(c1)c(CC(=O)NN)c(C)n2Cc1c(Cl)cccc1Cl`: the melting point lay in the range of 194 to 196 °C.
In the case of `O=C(Cn1ccnc1)CS(=O)(=O)c1ccccc1`, the melting point lay in the range of 137 to 140 °C.
With `O=C(O)c1ccc(CNC(=O)C2Cc3ccccc3N2S(=O)(=O)c2ccc(-c3ccc(F)cc3Cl)cc2)cc1` (stereo unspecified) the figure was 111 to 124 °C.
`Nc1ccc(Cl)cc1C(O)c1ccccc1OCc1ccccc1` (stereo unspecified) displayed a melting point of 120 to 121 °C.
For the molecule `COc1ccc(C(=O)Nc2c(Cl)cncc2Cl)cc1OCCCCCCCCCCCc1ccccc1`, the melting point lay in the range of 114 to 115 °C.
The molecule `CCc1cccc2c(=O)c3c(cnn3C)[nH]c12` had a melting point of 254 °C.
With `O=C(CCCCCCOc1ccc(-c2ccccc2)cc1)NO`, the melting point lay in the range of 147 to 149 °C.
To `O=CC=Cc1cn(Cc2cccc([N+](=O)[O-])c2)nn1` belongs 136 to 140 °C; to `CC(C)(C)c1cc(C(=O)CI)cc(C(C)(C)C)c1O`, 88 to 89 °C; to `CN(C)CCc1cccc2ccc(CS(=O)(=O)N3CCOCC3)cc12`, 114 to 117 °C.
`COC(=O)c1cc(N)cc(-n2cccc2)c1` showed a melting point of 116 to 118 °C.
The molecule `CCN(CC)Cc1nc(-c2ncn3c2[C@@H]2CCCN2C(=O)c2c(Cl)cccc2-3)no1` displayed a melting point of 151 to 153 °C.
As for `CCCC(=O)c1cnc2c(OC)cccc2c1Nc1ccc(CO)cc1`, the melting point lay within 187 to 189 °C.
To `CC(=O)Nc1cccc(-n2c(=O)c(CCCc3ccncc3)cc3cccnc32)c1` belongs 200 to 202 °C; to `Oc1ncn(-c2cccc(F)n2)n1`, 290 °C.
Molecule `CC(CCCC(C)C1C(O)CC2C3CC=C4CC(O)CCC4(C)C3CCC21C)CN1C(=O)c2ccccc2C1=O` (stereo unspecified) returned a melting point of 134 to 136 °C.
Regarding `COC(=O)c1cc2c(cn1)[nH]c1ccc(Oc3ccc([N+](=O)[O-])cn3)cc12`, the melting point lay in the range of 150 to 155 °C.
With `COc1ccc(C=CC(=O)Nc2c(CCO)nc3c(C)cc(C)cc3c2-c2ccccc2Cl)cc1OC` the figure was 115 to 116 °C.
To `CC1(C)OC(=O)C(C=Nc2cncc(Br)c2)C(=O)O1` belongs 200 to 202 °C; to `CCN1C(=O)C(C)(C)CCc2c1ccc(Nc1ncc(Cl)c(Nc3ccccc3C(=O)NC)n1)c2OC`, 226 to 228 °C.
To `Cc1ccc(CCCCc2ccc(C(=O)C[C@@H](C)CC(=O)O)s2)cc1` belongs 94 °C; to `c1ccc(CN2CCC3(Cc4ccccc4O3)C2)cc1` (stereo unspecified), 43 to 45 °C; to `Cc1ccc(S(=O)(=O)Cc2c(-c3ccc(Cl)cc3Cl)nn(C)c2O)cc1`, 209 °C.
On to `Cc1ccnc2c1nc(C)n2-c1ccccc1`, for which the melting point fell in the range of 117 to 119 °C.
To `O=C(NCCNCc1cc2cc(O)ccc2o1)C12CC3CC(CC(C3)C1)C2` belongs 140 to 143 °C.
To `Cc1cc2cc(CN3CCCC3)cnc2cc1NC(=O)c1ccc(-c2ccc(Cl)s2)cc1` belongs 216 °C; to `COc1ccc(CCc2cc(OC)c(OC)c(OC)c2)cc1`, 73 to 75 °C; to `Cn1cc(-c2cccc(C(F)(F)F)c2)c(=O)c(-c2ccc(Cl)cc2Cl)c1`, 139 to 142 °C.
As for `C#CC1N(C(=O)Oc2ccccc2)c2ccc(OCc3ccccc3[N+](=O)[O-])cc2C23OC12CCCC3O` (stereo unspecified), the melting point was in the range of 207 to 209 °C.
Molecule `Cc1cc(COc2ccc(C(=O)NC[C@](O)(C(N)=O)N3CCN(Cc4ccccc4)CC3)cc2)c2ccccc2n1` gave a melting point of 169 °C.
Take `CCNC(=O)Nc1ccc2[nH]cc(C(=O)O)c(=O)c2c1`: the melting point was over 320 °C.
`CC(=O)c1ccc(C(C)ON2C(C)(C)CCCC2(C)C)cc1` (stereo unspecified) returned a melting point of 61.5 to 63 °C.
In turn, `COc1ccc(C(=O)Nc2ccc(F)cc2)cc1N` came in with a melting point of 164 to 167 °C.
`CC(=O)C1CCC2C3CCC4CC(O)C(N5CC(C)(C)OC(C)(C)C5)CC4(C)C3C(=O)CC12C` (stereo unspecified) displayed a melting point of 212 to 215 °C.
